Each structure is given as a SMILES string. Structures can show the parent of a compound that is named as a salt.

This test concerns the target human tryptase. Description: Inhibition of human tryptase (apparent dissociation constant, chromogenic substrate tos-Gly-Pro-Arg-pNA). The class given is biochemical. The following applies: pKiapp = -log Kiapp (mol/l); in the presence of substrate; heparin 0.1-50 μg/ml. From the text: The documented pathophysiological effects of mast cell tryptase are brought about directly by the enzymatic activity of the protease. Accordingly, they are reduced or blocked by inhibitors which inhibit the enzymatic activity of tryptase. A suitable measure of the affinity of a reversible inhibitor for the target protease is the equilibrium dissociation constant Ki of the enzyme/inhibitor complex. This value of Ki can be determined via the influence of the inhibitor on the tryptase-induced cleavage of a chromogenic peptide-p-nitroanilide substrate or of a fluorogenic peptide-aminomethylcoumarin substrate.
The dissociation constants for the tryptase/inhibitor complexes are determined under equilibrium conditions in accordance with the general proposals of Bieth (Bieth J G, Pathophysiological Interpretation of kinetic constants of protease inhibitors, Bull. Europ. Physiopath. Resp. 16:183-195,1980) and the methods of Sommerhoff et al. (Sommerhoff C P et al., A Kazal-type Inhibitor of human mast cell tryptase: Isolation from the medical leech Hirudo medicinalis, characterization, and sequence analysis, Biol. Chem. Hoppe-Seyler 375: 685-694, 1994).
Human tryptase is prepared pure from lung tissue or is prepared by recombination; the specific activity of the protease which has been determined by titration is normally more than 85% of the theoretical value. Constant amounts of the tryptase are incubated in the presence of heparin (0.1-50 μg/ml) to stabilize the protease with increasing amounts of the inhibitors. After equilibrium has been reached between the reactants, the remaining enzymic activity is determined after addition of the peptide-p-nitroanilide substrate tos-Gly-Pro-Arg-pNA, whose cleavage is followed at 405 nm for 3 min. Alternatively, the remaining enzymatic activity can also be determined using fluorogenic substrates. The apparent dissociation constants Klapp (i.e. in the presence of substrate) are then found by nonlinear regression by fitting the enzyme rates to the general equation for reversible inhibitors (Morrison J F, Kinetics of the reversible inhibition of enzyme catalysed reactions by tight-binding inhibitors, Biochim. Biophys. Acta 185, 269-286, 1969): Vl/V0=1−{Et+It+Klapp−[(Et+It+Klapp)^2−4EtIt]^1/2}/2Et
In this, Vl and V0 are the rates respectively in the presence and absence of the inhibitor and Et and It are the concentrations of tryptase and of the inhibitor.
The apparent dissociation constants found for the compounds of the invention are evident from the following table A, in which the numbers of the compounds correspond to the numbers of the compounds in the examples [pKlapp=−logKlapp(mol/l)].

As to `COC(=O)Cc1cc(C#CCOC(=O)NCc2ccc(N)nc2)cc(C#CCOC(=O)NC2CC(C(=O)OC)N(C(=O)CCc3cccc(CN)c3)C2)c1` (stereo not shown) [Compound 3, dihydrochloride], the pKiapp is reported as 7.80.
For `COC(=O)Cc1cc(C#CCOC(=O)NCc2ccnc(N)c2)cc(C#CCOC(=O)NC2CC(C(=O)OC)N(C(=O)CCc3cccc(CN)c3)C2)c1` (stereo not shown) [Compound 6, dihydrochloride] the value was 7.19; for `COC(=O)Cc1cc(C#CCOC(=O)NCc2ccnc(N)c2)cc(C#CCOC(=O)NC2CC(C(=O)OC)N(C(=O)CCc3ccc(CN)cc3)C2)c1` (stereo not shown) [Compound 5, dihydrochloride], 6.00; for `COC(=O)Cc1cc(C#CCOC(=O)NCc2ccc(N)nc2)cc(C#CCOC(=O)NC2CC(C(=O)OC)N(C(=O)CCc3ccc(CN)cc3)C2)c1` (stereo not shown) [Compound 4, dihydrochloride], 6.57.

The record behind these values is patent publication US20050256171A1, “Pyrrolidine derivatives as tryptase inhibitors” (Altana Pharma A G, priority 2002, published 2005).
